Reference: US9346812B2, “Substituted pyrrolopyrimidine compounds, compositions thereof, and methods of treatment therewith” (Signal Pharmaceutical LLC, priority 2013, dated 2016)

Test system: CAL51 cell proliferation
Assay: Cell Titer Glo Proliferation Assay (CAL51)
Format: cell-based, human
Details: Homo sapiens, CAL-51; CAL51 cell proliferation, 72 h, Cell Titer Glo luminescence; read-out: Act. Level
Procedure, shortened: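 Viability is measured by CellTiter-Glo luminescence after 72 h of compound exposure. CAL51 cells were seeded in growth medium with 10% FBS and 2 mM glutamine, cultured overnight, then dosed with compound dilutions, vehicle held at 0.2% DMSO.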

Compound | IC50
CNC(=O)c1ccc(Nc2nc(OC3CCCC3)c3c(-c4ccc(NC(C)=O)c(O)c4)c[nH]c3n2)c(OC)c1 [Example 290, 4-(5-(4-acetamido-3-hydroxy-phenyl)-4-(cyclopentyloxy)-7H-pyrrolo[2,3-d]pyrimidin-2-ylamino)-3-methoxy-N-methylbenzamide] | 100 to 400 nM
COc1cc(C(=O)N2C[C@@H](O)[C@H](OC)C2)ccc1Nc1nc(OC2CCCC2)c2c(-c3ccc4nc(C)oc4c3)c[nH]c2n1 [Example 291, (4-(4-(cyclopentyloxy)-5-(2-methylbenzo[d]oxazol-6-yl)-7H-pyrrolo[2,3-d]pyrimidin-2-ylamino)-3-methoxyphenyl) ((3R,4R)-3-hydroxy-4-methoxypyrrolidin-1-yl) methanone] | < 100 nM
COc1cc(C(=O)NN2CCCCC2)ccc1Nc1nc(OC2CCCC2)c2c(-c3ccc4nc(C)oc4c3)c[nH]c2n1 [Example 292, 4-(4-(cyclopentyloxy)-5-(2-methylbenzo[d]oxazol-6-yl)-7H-pyrrolo[2,3-d]pyrimidin-2-ylamino)-3-methoxy-N-(piperidin-1-yl)benzamide] | 100 to 400 nM
CCOc1nc2ccc(-c3c[nH]c4nc(Nc5ccc(C(=O)NC)cc5OC)nc(OC5CCCC5)c34)cc2o1 [Example 293, 4-(4-(cyclopentyloxy)-5-(2-ethoxybenzo[d]oxazol-6-yl)-7H-pyrrolo[2,3-d]pyrimidin-2-ylamino)-3-methoxy-N-methylbenzamide] | 100 to 400 nM
CNC(=O)c1ccc(Nc2nc(OC3CCCC3)c3c(-c4ccc(N)c(O)c4)c[nH]c3n2)c(OC)c1 [Example 294, 4-(5-(4-amino-3-hydroxyphenyl)-4-(cyclopentyloxy)-7H-pyrrolo [2,3-d]pyrimidin-2-ylamino)-3-methoxy-N-methylbenzamide] | 100 to 400 nM
Cc1nc2ccc(-c3c[nH]c4nc(Nc5ccnn5C)nc(OC5CCCC5)c34)cc2o1 [Example 295, 4-(cyclopentyloxy)-N-(1-methyl-1H-pyrazol-5-yl)-5-(2-methylbenzo[d]oxazol-6-yl)-7H-pyrrolo[2,3-d]pyrimidin-2-amine] | 100 to 400 nM
Cc1nc2ccc(-c3c[nH]c4nc(Nc5cnn(C)c5C)nc(OC5CCCC5)c34)cc2o1 [Example 296, 4-(cyclopentyloxy)-N-(1,5-dimethyl-1H-pyrazol-4-yl)-5-(2-methylbenzo[d]oxazol-6-yl)-7H-pyrrolo[2,3-d]pyrimidin-2-amine] | < 100 nM
Cc1nc2ccc(-c3c[nH]c4nc(Nc5nn(C)cc5C)nc(OC5CCCC5)c34)cc2o1 [Example 297, 4-(cyclopentyloxy)-N-(1,4-dimethyl-1H-pyrazol-3-yl)-5-(2-methylbenzo[d]oxazol-6-yl)-7H-pyrrolo[2,3-d]pyrimidin-2-amine] | 1000 to 10000 nM
CNC(=O)c1cc(C)c(Nc2nc(OC3CCCC3)c3c(-c4ccc5nc(C)oc5c4)c[nH]c3n2)c(OC)c1 [Example 298, 4-(4-(cyclopentyloxy)-5-(2-methylbenzo[d]oxazol-6-yl)-7H-pyrrolo[2,3-d]pyrimidin-2-ylamino)-3-methoxy-N,5-dimethylbenzamide] | 1000 to 10000 nM
CNC(=O)c1ccc(Nc2nc(OC3CCCC3)c3c(-c4ccc5[nH]c(=O)oc5c4)c[nH]c3n2)c(OC)c1 [Example 299, 4-(4-(cyclopentyloxy)-5-(2-oxo-2,3-dihydrobenzo[d]oxazol-6-yl)-7H-pyrrolo[2,3-d]pyrimidin-2-ylamino)-3-methoxy-N-methylbenzamide] | 100 to 400 nM
COc1cc(C(=O)NC2(C)COC2)ccc1Nc1nc(OC2CCCC2)c2c(-c3ccc4nc(C)oc4c3)c[nH]c2n1 [Example 301, 4-(4-(cyclopentyloxy)-5-(2-methylbenzo[d]oxazol-6-yl)-7H-pyrrolo[2,3-d]pyrimidin-2-ylamino)-3-methoxy-N-(3-methyloxetan-3-yl)benzamide] | 100 to 400 nM
COc1cc(C(=O)NC2COC2)ccc1Nc1nc(OC2CCC2)c2c(-c3cnn(C)c3)c[nH]c2n1 [Example 302, 4-(4-cyclobutoxy-5-(1-methyl-1H-pyrazol-4-yl)-7H-pyrrolo[2,3-d]pyrimidin-2-ylamino)-3-methoxy-N-(oxetan-3-yl) benzamide] | 100 to 400 nM
COc1cc(C(=O)NC2COC2)ccc1Nc1nc(OC2CCCC2)c2c(-c3cnn(C)c3)c[nH]c2n1 [Example 303, 4-(4-(cyclopentyloxy)-5-(1-methyl-1H-pyrazol-4-yl)-7H-pyrrolo[2,3-d]pyrimidin-2-ylamino)-3-methoxy-N-(oxetan-3-yl)benzamide] | < 100 nM
CNC(=O)c1ccc(-c2c[nH]c3nc(Nc4ccc(C(=O)NC5COC5)cc4OC)nc(OC4CCCC4)c23)cc1 [Example 305, 4-(4-(cyclopentyloxy)-5-(4-(methylcarbamoyl)phenyl)-7H-pyrrolo[2,3-d]pyrimidin-2-ylamino)-3-methoxy-N-(oxetan-3-yl)benzamide] | < 100 nM
CNC(=O)c1ccc(Nc2nc(OC3CCCC3)c3c(-c4ccc5ncccc5c4)c[nH]c3n2)c(OC)c1 [Example 306, 4-(4-(cyclopentyloxy)-5-(quinolin-6-yl)-7H-pyrrolo[2,3-d]pyrimidin-2-ylamino)-3-methoxy-N-methylbenzamide] | < 100 nM
Cc1nc2ccc(-c3c[nH]c4nc(Nc5cn(C)nc5C)nc(OC5CCCC5)c34)cc2o1 [Example 307, 4-(cyclopentyloxy)-N-(1,3-dimethyl-1H-pyrazol-4-yl)-5-(2-methylbenzo[d]oxazol-6-yl)-7H-pyrrolo[2,3-d]pyrimidin-2-amine] | < 100 nM
COc1cc(C(=O)NC2CN(C(C)=O)C2)ccc1Nc1nc(OC2CCCC2)c2c(-c3ccc4nc(C)oc4c3)c[nH]c2n1 [Example 308, N-(1-acetylazetidin-3-yl)-4-(4-(cyclopentyloxy)-5-(2-methylbenzo[d]oxazol-6-yl)-7H-pyrrolo[2,3-d]pyrimidin-2-ylamino)-3-methoxybenzamide] | 100 to 400 nM
COc1cc(C(=O)NCC(C)(F)F)ccc1Nc1nc(OC2CCCC2)c2c(-c3ccc4nc(C)oc4c3)c[nH]c2n1 [Example 309, 4-(4-(cyclopentyloxy)-5-(2-methylbenzo[d]oxazol-6-yl)-7H-pyrrolo[2,3-d]pyrimidin-2-ylamino)-N-(2,2-difluoropropyl)-3-methoxybenzamide] | 100 to 400 nM
CNC(=O)c1ccc(-c2c[nH]c3nc(Nc4ccc(C(=O)NC5COC5)cc4OC)nc(OC4CCOCC4)c23)cc1 [Example 310, 3-methoxy-4-(5-(4-(methylcarbamoyl)phenyl)-4-(tetrahydro-2H-pyran-4-yloxy)-7H-pyrrolo[2,3-d]pyrimidin-2-ylamino)-N-(oxetan-3-yl) benzamide] | < 100 nM
COc1cc(C(=O)N2C[C@@H](OC)[C@H](OC)C2)ccc1Nc1nc(OC2CCCC2)c2c(-c3ccc4nc(C)oc4c3)c[nH]c2n1 [Example 311, (4-(4-(cyclopentyloxy)-5-(2-methylbenzo[d]oxazol-6-yl)-7H-pyrrolo[2,3-d]pyrimidin-2-ylamino)-3-methoxyphenyl) ((3R,4R)-3,4-dimethoxypyrrolidin-1-yl)methanone] | < 100 nM
COc1cc(C(=O)N2CC2(C)C)ccc1Nc1nc(OC2CCCC2)c2c(-c3ccc4nc(C)oc4c3)c[nH]c2n1 [Example 312, (4-(4-(cyclopentyloxy)-5-(2-methylbenzo[d]oxazol-6-yl)-7H-pyrrolo[2,3-d]pyrimidin-2-ylamino)-3-methoxyphenyl)(2,2-dimethylaziridin-1-yl)methanone] | 400 to 1000 nM
COc1cc(C(=O)N2C[C@@H]2C)ccc1Nc1nc(OC2CCCC2)c2c(-c3ccc4nc(C)oc4c3)c[nH]c2n1 [Example 313, (S)-(4-(4-(cyclopentyloxy)-5-(2-methylbenzo[d]oxazol-6-yl)-7H-pyrrolo[2,3-d]pyrimidin-2-ylamino)-3-methoxyphenyl)(2-methylaziridin-1-yl)methanone] | 400 to 1000 nM
COc1cc(C(=O)NC2COC2)ccc1Nc1nc(O[C@H]2CC[C@@](C)(O)CC2)c2c(-c3ccc4nc(C)oc4c3)c[nH]c2n1 [Example 314, 4-(4-((1s,4s)-4-hydroxy-4-methylcyclohexyloxy)-5-(2-methylbenzo[d]oxazol-6-yl)-7H-pyrrolo[2,3-d]pyrimidin-2-ylamino)-3-methoxy-N-(oxetan-3-yl)benzamide] | < 100 nM
COc1cc(C(=O)N2CC2)ccc1Nc1nc(O[C@H]2CC[C@@](C)(O)CC2)c2c(-c3ccc4nc(C)oc4c3)c[nH]c2n1 [Example 315, aziridin-1-yl(4-(4-((1s,4s)-4-hydroxy-4-methylcyclohexyloxy)-5-(2-methylbenzo[d]oxazol-6-yl)-7H-pyrrolo[2,3-d]pyrimidin-2-ylamino)-3-methoxyphenyl) methanone] | < 100 nM
CNC(=O)c1ccc(-c2c[nH]c3nc(Nc4ccnn4C)nc(OC4CCCC4)c23)cc1 [Example 316, 4-(4-(cyclopentyloxy)-2-(1-methyl-1H-pyrazol-5-ylamino)-7H-pyrrolo [2,3-d]pyrimidin-5-yl)-N-methylbenzamide] | < 100 nM
CNC(=O)c1ccc(-c2c[nH]c3nc(Nc4ccnn4C)nc(OC4CCOCC4)c23)cc1 [Example 317, N-methyl-4-(2-(1-methyl-1H-pyrazol-5-ylamino)-4-(tetrahydro-2H-pyran-4-yloxy)-7H-pyrrolo [2,3-d]pyrimidin-5-yl)benzamide] | 400 to 1000 nM
